Data reported in publication PMC9273884, “Responsive Fluorescent Coumarin–Cinnamic Acid Conjugates for α-Glucosidase Detection” (Frontiers in Chemistry, 2022).
“Also recorded” adds a separate entry of the source.

Tests used:
[1] = pH-dependent emission (pKa by Henderson-Hasselbalch equation); type: physicochemical; conditions: from emission spectra in PBS buffer pH 3.0 to 8.0, room temperature
Experimental: The emission spectra of the probes in PBS buffer (pH from 3.0 to 8.0) were determined at room temperature. The pKa value was calculated using the Henderson–Hosslbalch equation ([Finikova et al., 2003]): pH = pKa + lg ([A]/[HA]).

α-glucosidase [2] = molecular target: T1, α-glucosidase (Saccharomyces cerevisiae, UniProt P53341); test: Fluorescence titration of the probes with α-glucosidase; type: binding; conditions: for increase of maximum emission intensity on addition of α-glucosidase: 3.5 μM α-glucosidase, PBS buffer
T1 construct: purchased Sigma-Aldrich
T1 sequence (P53341 whole entry): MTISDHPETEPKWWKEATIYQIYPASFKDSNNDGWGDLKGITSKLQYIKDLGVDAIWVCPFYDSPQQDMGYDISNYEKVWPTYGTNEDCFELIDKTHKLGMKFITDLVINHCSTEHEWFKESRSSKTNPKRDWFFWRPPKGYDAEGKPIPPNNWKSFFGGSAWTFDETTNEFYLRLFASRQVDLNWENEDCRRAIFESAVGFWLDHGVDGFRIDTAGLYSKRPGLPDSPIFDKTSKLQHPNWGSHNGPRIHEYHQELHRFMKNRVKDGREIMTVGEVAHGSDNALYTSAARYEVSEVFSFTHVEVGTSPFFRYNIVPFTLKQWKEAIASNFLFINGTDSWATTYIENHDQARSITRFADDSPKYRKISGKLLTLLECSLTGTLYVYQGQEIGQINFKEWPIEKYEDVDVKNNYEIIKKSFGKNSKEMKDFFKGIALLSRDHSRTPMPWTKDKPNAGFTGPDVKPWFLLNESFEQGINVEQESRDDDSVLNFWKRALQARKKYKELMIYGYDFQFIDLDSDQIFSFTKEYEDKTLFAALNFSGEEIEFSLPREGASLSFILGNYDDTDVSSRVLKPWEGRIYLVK
Experimental: (§1) All chemicals and solvents were obtained from commercial suppliers without further purification. α-Glucosidase from Saccharomyces cerevisiae (EC 3.2.1.20) was purchased from Sigma-Aldrich. p-Nitrophenyl-α-D-[…] (PNPG) was obtained from Abcam. Nuclear magnetic resonance (NMR) spectra of new compounds were recorded in DMSO-d 6 using a Bruker Advance 500 MHz spectrometer. High-resolution mass spectrometry (HRMS) was measured on a Thermo Fisher Scientific Q Exactive Orbitrap mass spectrometer. UV–Vis absorption spectra were measured using an Hitachi 3,900 absorption spectrophotometer (Tokyo, Japan). Fluorescence spectra were recorded using an Edinburgh FLS1000 fluorescence spectrophotometer (Edinburgh, UK).
α-Glucosidase protein was titrated to the solution of the testing probe (LD01 or LD02) (10 μM), and the fluorescence emission spectra were recorded from 380 to 700 nm under excitation of 365 nm. The binding constants of Ka were obtained from a double logarithm regression curve ([Wei et al., 2010]): 1g[(I−Io)/Io] = 1gKa + n 1g[G],
where I and I0 are the current and initial fluorescence intensity, respectively, K a is the binding constant, n is the number of binding sites for each α-glucosidase, and [G] is the total concentration of the α-glucosidase protein.

α-glucosidase [3] = molecular target: T1, α-glucosidase; test: Fluorescence competitive binding assay against α-glucosidase/LD02 complex
Experimental: as §1
The binding complexes of α-glucosidase with LD02 were prepared by adding α-glucosidase (final concentration = 3.5 μM) to the solution of LD02 (10 μM) in 10 mM PBS buffer (pH = 7.4). The dissociation constant of a competitor to α-glucosidase can be determined by titrating it against binding complexes of α-glucosidase with LD02, and can be calculated according to the Cheng–Prusoff equation ([Cheng and Prusoff, 1973]).

[4] = molecular target: T2, α-Glucosidase from Saccharomyces cerevisiae (EC 3.2.1.20) (Saccharomyces cerevisiae, UniProt P53341); test: α-Glucosidase inhibition efficiency test (PNPG substrate, absorbance at 405 nm); type: biochemical; conditions: 0.1 U/mL enzyme, 1 mmol/L PNPG, 37°C, triplicate mean; read-out: IC50 against α-glucosidase
T2 construct: purchased Sigma-Aldrich
T2 sequence (P53341 whole entry): as above
Experimental: All chemicals and solvents were obtained from commercial suppliers without further purification. α-Glucosidase from Saccharomyces cerevisiae (EC 3.2.1.20) was purchased from Sigma-Aldrich. p-Nitrophenyl-α-D-galactopyranoside (PNPG) was obtained from Abcam.
Stock solutions of testing compounds were prepared in DMSO. Enzyme solution of α-glucosidase (2 U/mL) was prepared in 0.1 M PBS buffer. Nitrophenol-α-D-glucoside (PNPG) was dissolved in 0.1 M PBS buffer (pH 6.8) to obtain the substrate solution (4 mM). In total, 10 μL of α-glucosidase (final concentration 0.1 U/mL), 130 μL of PBS buffer, and 10 μL of the sample solution were added into 96-well plates in succession and incubated at 37°C for 10 min. Then 50 μL of substrate solution (PNPG final concentration 1 mmol/L) was added, followed by incubation at 37°C for another 30 min. The enzymatic activity was quantified by measuring the absorbance of the reaction mixture at 405 nm using a multimodel reader. The inhibition rate was calculated using the following equation: Inhibition rate (%) = [(A1−A0)/A0] × 100%, where A1 and A0 are the absorbance values of testing samples and blank control, respectively. The IC50 value was obtained from a plot of the inhibition rate versus the sample concentration curve. The assays were carried out in triplicate and the mean values were given.

[5] = test system: glucose oxidase (GOD), polyphenol oxidase (TKY), pepsin (PEP), Cys, GSH, Lys, Ca2+, Cu2+, Fe3+, Mg2+, Zn2+; test: Binding selectivity of LD02: emission in the presence of potential competitors; conditions: 10 μM LD02; enzymes 3.5 μM, small molecules and ions 1 mM; 10 mM PBS pH 7.4
Experimental: To verify the binding specificity of LD02 toward α-glucosidase, emission spectra of LD02 in the presence of α-glucosidase or various potential competitors such as other enzymes (including glucose oxidase (GOD), polyphenol oxidase (TKY), and pepsin (PEP)), and small molecules of interest (including Cys, GSH, Lys, Ca^2+, Cu^2+, Fe^3+, Mg^2+, and Zn^2+), were collected in 10 mM PBS buffer (pH = 7.4) at room temperature.
FIGURE 5 (A) Fluorescence spectra of LD02 (10 μM) in the presence of various species: α-glucosidase (α-Glu) (3.5 μM), GOD (3.5 μM), TKY (3.5 μM), PEP (3.5 μM), Cys (1 mM), GSH (1 mM), Lys (1 mM), Ca^2+ (1 mM), Cu^2+ (1 mM), Fe^3+ (1 mM), Mg^2+ (1 mM), and Zn^2+ (1 mM) in PBS buffer. (B) The plot of (I-I0)/I0 in A (λex = 365 nm, λem = 457 nm).

Structure (SMILES) | pKa [1] | increase of maximum emission intensity on addition of α-glucosidase (α-glucosidase [2]; 10 μM probe) | Kd (α-glucosidase [3]) [µM] | IC50 [4] [µM] | Kd (α-glucosidase [2]) [µM] | binding ratio (n, number of binding sites) to α-glucosidase (α-glucosidase [2]; double logarithm regression, 10 μM probe, PBS) | effect of potential competitors on emission band and intensity (selectivity toward α-glucosidase) [5]
CCN(CC)c1ccc2cc(/C(C)=N/OC(=O)/C=C/c3ccc(Br)cc3)c(=O)oc2c1 [LD01] | 4.2 | no obvious emission changes; also recorded: does not have such changes | 6.31 | 4.6 ± 0.5 | – | – | –
C/C(=N\OC(=O)/C=C/c1ccc(N(C)C)cc1)c1cc2ccccc2oc1=O [LD02] | 4.6 | 2.7 times | – | 32.5 ± 0.8 | 158 | approximately 0.5 | no obvious effect
